# Assays:
# [1] = test system: Staphylococcus aureus (MRSA) ATCC 33591; assay: Microdilution assay in liquid broth, viable count on agar plates; type: cell-based; conditions: positive controls at 4%, up to 24 h
# Protocol: (§1) A microbiological screening study on liquid broth was performed to assess the activity (bacterial growth) of 5 preparations (P1, P2, P3, P4 and P5) on two Staphylococcus species: (1) Staphylococcus aureus (MRSA) ATCC 33591 as potential skin pathogen and (2) Staphylococcus epidermidis ATCC 12228 as commensal strain in healthy skin. With the aim to assess a potential and strain specific antimicrobial or prebiotic activity vs Staphylococcus spp and to validate the hypothesis that the ingredients may have a prebiotic effect (on S. epidermidis) and meanwhile negatively impacting the viability or growth rate (on S. aureus), the experimental results are presented below.
# (§2) To assess a potential and strain specific antimicrobial or prebiotic activity vs Staphylococcus spp.: a microdilution assay (viable count on agar plates) in liquid broth was performed using 3 different concentrations, 4%-2%-1% for each ingredient, compared to inulin and glucose as carbon source and prebiotic reference. […]
# (§3) The growth rate checked by viable count (CFU/mL) was performed to quantify the number of residual viable cells present in the test cultures and they were then expressed as Log values.
# [2] = test system: Staphylococcus epidermidis ATCC 12228; assay: as above; type: cell-based; conditions: positive controls at 4%, up to 24 h
# Protocol: as §1, §2, §3
# S. aureus = assay: Inhibitory study on colonized Reconstructed Human Epidermis (RHE), viable count; type: cell-based, Staphylococcus aureus
# From the text: The principal aim of the present study was to evaluate the potential efficacy of BSG-derived preparations on a more biologically relevant in vitro preclinical model based on colonized Reconstructed Human Epidermis (RHE). The main focus was given to: • I. to counteract Staphylococcus aureus adhesion and its proliferative capacity. The rationale was based on the possibility of the ingredients to balance the inflammatory reaction induced by the bacterium, reducing its adhesion and growth on RHE model (inhibitory study); • II. the prebiotic effect of the 3 preparations versus Staphylococcus epidermidis (prebiotic study). The rationale was based on the possibility of the ingredients to protect and biostimulant the normal skin microbiota; • III. their biological impact on sterile RHE model. The rationale was based on the possibility that the ingredients to enhance or balance the innate immune response.
# For this study the following BSG-derived preparations were used: • for inhibitory and ingredient impact effects: P1 at 1%, P3 at 2% and P4 at 4%; • for prebiotic effect: […] at 1%, P3 at 2% and P5 at 1%.
# SkinEthic^@ Reconstituted Human Epidermis 0.5 cm^2 is a reconstructed epidermis of normal human keratinocytes. Cells are grown on inert polycarbonate filters in chemically defined medium, for 17 days. The model reproduces epidermal morphology and it has been fully characterized. The good barrier function, batch reproducibility and low variability in terms of permeability for probe molecules have been described in Literature compared to human ex-vivo models. The RHE batch was tested for the absence of HIV1 and 2 antibodies, hepatitis C antibodies and hepatitis B antigen HBs. On cells from the donors, was verified the absence of bacteria, fungus and mycoplasma. The maintenance medium was tested for sterility.
# Two days before the test, bacterial strains (S. aureus and S. epidermidis) were daily inoculated onto culture medium (BHI agar plate) and incubated at 37° C. in aerobic conditions for at least 24 h in order to obtain a fresh culture. The day of the colonization, bacterial strains have been resuspended in sterile saline solution at the required concentration range. Each starting bacterial inoculum concentration was checked by spectrophotometric OD measure and adjusted to obtain a range of about 10^7-10^8 UFC/mL (OD=0.1); it was then diluted 10-fold to obtain a final range concentration of 10^3-10^4 UFC/tissue for the inhibitory study and 10^4-10^5 UFC/tissue for prebiotic study. The starting inoculum level was also confirmed by serial decimal dilutions and viable counts on agar plates (BHI).
# For both inhibitory and prebiotic RHE were pre-treated twice (overnight and 1 h before colonization respectively with 50 uL and 30 uL) on the apical part (directly spread on tissue surface) and left incubated at 37° C. (with CO2 5%) up to the colonization. Pre-treated RHE dedicated to inhibitory and prebiotic studies were colonized with 30 μL of the bacterial suspension previously obtained (respectively with S. aureus for inhibitory study and S. epidermidis for prebiotic study) and incubated at 37° C. (with CO2 5%) up to the required time point (24 h). RHE sterile were not colonized pre-treated twice (overnight and 1 h before colonization respectively with 50 uL and 30 uL) on the apical part (directly spread on tissue surface) and left incubated at 37° C. (with CO2 5%) up to the required time point (24 h). […]
# [3] = RHE model after 2 days, vs colonized control, P1 1%, P3 2%, P4 4%, Chlorexidine 1%
# [4] = RHE model after 2 days, P1 1%, P3 2%, P4 4%, Chlorexidine 1%
Molecule,growth compared with inoculum count [1],growth compared with inoculum count [2],"bacterial growth on RHE compared to the colonized control (S. aureus; P3 at 2%, P4 at 4%, REF Chlorexidine 1%)",Apical fraction Log reductions (S. aureus; [3]) [Log],Homogenate fraction Log reductions (S. aureus; [3]) [Log],Apical fraction Log (Mean) viable count (S. aureus; [4]) [Log],Homogenate fraction Log (Mean) viable count (S. aureus; [4]) [Log]
Inulin,growth similar to the inoculum count,growth similar to the inoculum count,,,,,
"N=C(NCCCCCCNC(=N)NC(=N)Nc1ccc(Cl)cc1)NC(=N)Nc1ccc(Cl)cc1 [REF, Chlorexidine]",,,no bacterial growth,>3.26,>3.00,<2.00,<2.00
